# Experimental data reported in PubChem BioAssay AID1963874 (Molecular Pharmacology Branch, DTP, NCI, 2024).
# pIC50: −log10 of the molar value.
# Test system: 253994-281-T-J1-PDC KRAS-mutant spheroids with HUVEC/MSC, viability
# Assay: Anticancer human tumor 253994-281-T-J1-PDC patient-derived colorectal carcinoma cell line growth inhibition [KRAS2]
# Details: for viability, T/C: stronger effect = lower value
# Summary of the method: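 KRAS-mutant tumor cells were grown as spheroids with HUVEC endothelial cells and human MSCs as stroma. Targeted agents were tested alone and with KRAS pathway inhibitors. Doses started at or near clinical Cmax, or 10 microM, descending half-log.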
# [1] = curve of first compound, second compound 0.1 µM
# [2] = curve of first compound, second compound 0.316 µM
# [3] = curve of first compound, second compound 1 µM
# [4] = curve of first compound, second compound 3.16 µM
# [5] = curve of first compound, second compound 10 µM
# [6] = second compound 0.1 µM, first compound 0.0316 µM
# [7] = second compound 0.1 µM, first compound 0.1 µM
# [8] = second compound 0.1 µM, first compound 0.316 µM
# [9] = second compound 0.1 µM, first compound 1 µM
# [10] = second compound 0.1 µM, first compound 3.16 µM
# [11] = second compound 0.1 µM, first compound 10 µM
# [12] = second compound 0.316 µM, first compound 0.0316 µM
# [13] = second compound 0.316 µM, first compound 0.1 µM
# [14] = second compound 0.316 µM, first compound 0.316 µM
# [15] = second compound 0.316 µM, first compound 1 µM
# [16] = second compound 0.316 µM, first compound 3.16 µM
# [17] = second compound 0.316 µM, first compound 10 µM
# [18] = second compound 1 µM, first compound 0.0316 µM
# [19] = second compound 1 µM, first compound 0.1 µM
# [20] = second compound 1 µM, first compound 0.316 µM
# [21] = second compound 1 µM, first compound 1 µM
# [22] = second compound 1 µM, first compound 3.16 µM
# [23] = second compound 1 µM, first compound 10 µM
# [24] = second compound 3.16 µM, first compound 0.0316 µM
# [25] = second compound 3.16 µM, first compound 0.1 µM
# [26] = second compound 3.16 µM, first compound 0.316 µM
# [27] = second compound 3.16 µM, first compound 1 µM
# [28] = second compound 3.16 µM, first compound 3.16 µM
# [29] = second compound 3.16 µM, first compound 10 µM
# [30] = second compound 10 µM, first compound 0.0316 µM
# [31] = second compound 10 µM, first compound 0.1 µM
# [32] = curve of first compound, second compound 0.0316 µM
# [33] = second compound 0.0316 µM, first compound 0.0316 µM
# [34] = second compound 0.0316 µM, first compound 0.1 µM
# [35] = second compound 0.0316 µM, first compound 0.316 µM
# [36] = second compound 0.0316 µM, first compound 1 µM
# [37] = second compound 0.0316 µM, first compound 3.16 µM
# [38] = second compound 0.0316 µM, first compound 10 µM
# [39] = second compound 0.1 µM, first compound 0.000316 µM
# [40] = second compound 0.1 µM, first compound 0.001 µM
# [41] = second compound 0.1 µM, first compound 0.00316 µM
# [42] = second compound 0.1 µM, first compound 0.01 µM
# [43] = second compound 0.316 µM, first compound 0.000316 µM
# [44] = second compound 0.316 µM, first compound 0.001 µM
# [45] = second compound 0.316 µM, first compound 0.00316 µM
# [46] = second compound 0.316 µM, first compound 0.01 µM
# [47] = second compound 1 µM, first compound 0.000316 µM
# [48] = second compound 1 µM, first compound 0.001 µM
# [49] = second compound 1 µM, first compound 0.00316 µM
# [50] = second compound 1 µM, first compound 0.01 µM
# [51] = second compound 3.16 µM, first compound 0.000316 µM
# [52] = second compound 3.16 µM, first compound 0.001 µM
# [53] = second compound 3.16 µM, first compound 0.00316 µM
# [54] = second compound 3.16 µM, first compound 0.01 µM
# [55] = second compound 10 µM, first compound 0.000316 µM
# [56] = second compound 10 µM, first compound 0.001 µM
# [57] = second compound 10 µM, first compound 0.00316 µM
# [58] = second compound 10 µM, first compound 0.01 µM
# 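Further: spheroids exposed to agents for seven days before readout.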
# 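Wherever viability, T/C is given: percent of DMSO vehicle control viability.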
smiles,measurement,setting,value
COc1cc2nccc(Oc3ccc(NC(=O)C4(C(=O)Nc5ccc(F)cc5)CC4)cc3)c2cc1OC + CC1OCC2(CCN(c3cnc(Sc4ccnc(N)c4Cl)c(N)n3)CC2)C1N,pIC50,[1],< 5.00
same,pIC50,[2],5.08
same,pIC50,[3],5.12
same,pIC50,[4],5.32
same,pIC50,[5],> 7.50
same,"viability, T/C",[6],99%
same,"viability, T/C",[7],106%
same,"viability, T/C",[8],89.8%
same,"viability, T/C",[9],74.9%
same,"viability, T/C",[10],81.2%
same,"viability, T/C",[11],65.1%
same,"viability, T/C",[12],87.8%
same,"viability, T/C",[13],105%
same,"viability, T/C",[14],96.3%
same,"viability, T/C",[15],83.3%
same,"viability, T/C",[16],75.2%
same,"viability, T/C",[17],45%
same,"viability, T/C",[18],74%
same,"viability, T/C",[19],83.1%
same,"viability, T/C",[20],86.2%
same,"viability, T/C",[21],84.9%
same,"viability, T/C",[22],77.5%
same,"viability, T/C",[23],41.4%
same,"viability, T/C",[24],58.5%
same,"viability, T/C",[25],64.8%
same,"viability, T/C",[26],70.4%
same,"viability, T/C",[27],64.7%
same,"viability, T/C",[28],65.6%
same,"viability, T/C",[29],24.9%
same,"viability, T/C",[30],29.6%
same,"viability, T/C",[31],36.2%
same,"viability, T/C","second compound 10 µM, first compound 0.316 µM",50.5%
same,"viability, T/C","second compound 10 µM, first compound 1 µM",41.5%
same,"viability, T/C","second compound 10 µM, first compound 3.16 µM",39.9%
same,"viability, T/C","second compound 10 µM, first compound 10 µM",14%
COc1cc(Nc2ncc3c(n2)-c2ccc(Cl)cc2C(c2c(F)cccc2OC)=NC3)ccc1C(=O)O + C=CC(=O)N1CCN(c2nc(OCC3CCCN3C)nc3c2CCN(c2cccc4cccc(C)c24)C3)CC1CC#N,pIC50,[32],7.05
same,pIC50,[1],< 5.00
same,pIC50,[2],> 7.50
same,pIC50,[3],< 5.00
same,pIC50,[4],> 7.50
same,"viability, T/C",[33],74.5%
same,"viability, T/C",[34],42.8%
same,"viability, T/C",[35],39%
same,"viability, T/C",[36],48.5%
same,"viability, T/C",[37],50%
same,"viability, T/C",[38],57%
same,"viability, T/C",[6],76.6%
same,"viability, T/C",[7],36.6%
same,"viability, T/C",[8],38.9%
same,"viability, T/C",[9],40.7%
same,"viability, T/C",[10],54.2%
same,"viability, T/C",[11],64.4%
same,"viability, T/C",[12],60.9%
same,"viability, T/C",[13],35.9%
same,"viability, T/C",[14],32.6%
same,"viability, T/C",[15],45.9%
same,"viability, T/C",[16],50.4%
same,"viability, T/C",[17],55.1%
same,"viability, T/C",[18],70.1%
same,"viability, T/C",[19],39.5%
same,"viability, T/C",[20],36%
same,"viability, T/C",[21],40.3%
same,"viability, T/C",[22],60.6%
same,"viability, T/C",[23],58.4%
same,"viability, T/C",[24],17.1%
same,"viability, T/C",[25],8.06%
same,"viability, T/C",[26],5.83%
same,"viability, T/C",[27],20.6%
same,"viability, T/C",[28],25.9%
same,"viability, T/C",[29],25.9%
Cn1ncnc1[C@H]1c2n[nH]c(=O)c3cc(F)cc(c23)N[C@@H]1c1ccc(F)cc1,"viability, T/C",compound 0.000316 µM,101% [middle of 5 runs]
same,"viability, T/C",compound 0.001 µM,99.4% [middle of 5 runs]
same,"viability, T/C",compound 0.01 µM,99.2% [middle of 5 runs]
same,"viability, T/C",compound 0.0316 µM,102% [middle of 5 runs]
same,pIC50,curve of compound,< 7.00
CC(C)n1nc(-c2ccc3oc(N)nc3c2)c2c(N)ncnc21 + C=CC(=O)N1CCN(c2nc(=O)n(-c3c(C)ccnc3C(C)C)c3nc(-c4c(O)cccc4F)c(F)cc23)C(C)C1,pIC50,[1],< 7.00
same,pIC50,[2],< 7.00
same,pIC50,[3],< 7.00
same,pIC50,[4],< 7.00
same,pIC50,[5],< 7.00
same,"viability, T/C",[39],106%
same,"viability, T/C",[40],106%
same,"viability, T/C",[41],101%
same,"viability, T/C",[42],99.3%
same,"viability, T/C",[6],90.4%
same,"viability, T/C",[7],78.3%
same,"viability, T/C",[43],98.5%
same,"viability, T/C",[44],97.1%
same,"viability, T/C",[45],87.8%
same,"viability, T/C",[46],85.9%
same,"viability, T/C",[12],92.1%
same,"viability, T/C",[13],68.1%
same,"viability, T/C",[47],102%
same,"viability, T/C",[48],98.8%
same,"viability, T/C",[49],95.7%
same,"viability, T/C",[50],78.3%
same,"viability, T/C",[18],82%
same,"viability, T/C",[19],64.1%
same,"viability, T/C",[51],108%
same,"viability, T/C",[52],105%
same,"viability, T/C",[53],83.5%
same,"viability, T/C",[54],75.2%
same,"viability, T/C",[24],89.1%
same,"viability, T/C",[25],65.1%
same,"viability, T/C",[55],88.7%
same,"viability, T/C",[56],93.8%
same,"viability, T/C",[57],97.7%
same,"viability, T/C",[58],80.1%
same,"viability, T/C",[30],84.8%
same,"viability, T/C",[31],61.9%
CCNC(=O)CC1N=C(c2ccc(Cl)cc2)c2cc(OC)ccc2-n2c(C)nnc21 (stereo not given) + C=CC(=O)N1CCN(c2nc(OCC3CCCN3C)nc3c2CCN(c2cccc4cccc(C)c24)C3)CC1CC#N,pIC50,[32],< 5.00
same,pIC50,[1],< 5.00
same,pIC50,[2],< 5.00
same,pIC50,[3],< 5.00
same,pIC50,[4],6.06
same,"viability, T/C",[33],101%
same,"viability, T/C",[34],99.7%
same,"viability, T/C",[35],88.3%
same,"viability, T/C",[36],97%
same,"viability, T/C",[37],107%
same,"viability, T/C",[38],85.9%
same,"viability, T/C",[6],92.2%
same,"viability, T/C",[7],110%
same,"viability, T/C",[8],96.9%
same,"viability, T/C",[9],107%
same,"viability, T/C",[10],97.9%
same,"viability, T/C",[11],86.5%
same,"viability, T/C",[12],107%
same,"viability, T/C",[13],104%
same,"viability, T/C",[14],106%
same,"viability, T/C",[15],91.4%
same,"viability, T/C",[16],92.8%
same,"viability, T/C",[17],90.7%
same,"viability, T/C",[18],98.4%
same,"viability, T/C",[19],108%
same,"viability, T/C",[20],95.8%
same,"viability, T/C",[21],91%
same,"viability, T/C",[22],93%
same,"viability, T/C",[23],85%
same,"viability, T/C",[24],84%
same,"viability, T/C",[25],96.2%
same,"viability, T/C",[26],83.2%
same,"viability, T/C",[27],25.9%
same,"viability, T/C",[28],65.9%
same,"viability, T/C",[29],43.8%
CN(C)C/C=C/C(=O)Nc1cc2c(Nc3ccc(F)c(Cl)c3)ncnc2cc1O[C@H]1CCOC1 + CC1OCC2(CCN(c3cnc(Sc4ccnc(N)c4Cl)c(N)n3)CC2)C1N,pIC50,[1],< 7.00
same,pIC50,[2],7.06
same,pIC50,[3],< 7.00
same,pIC50,[4],> 9.50
same,pIC50,[5],< 7.00
same,"viability, T/C",[39],85.5%
same,"viability, T/C",[40],74.8%
same,"viability, T/C",[41],91.2%
same,"viability, T/C",[42],79.3%
same,"viability, T/C",[6],81.4%
same,"viability, T/C",[7],58.5%
same,"viability, T/C",[43],57.1%
same,"viability, T/C",[44],72.1%
same,"viability, T/C",[45],79.6%
same,"viability, T/C",[46],70.6%
same,"viability, T/C",[12],74%
same,"viability, T/C",[13],47%
same,"viability, T/C",[47],79%
same,"viability, T/C",[48],97%
same,"viability, T/C",[49],79.5%
same,"viability, T/C",[50],86.3%
same,"viability, T/C",[18],86.2%
same,"viability, T/C",[19],83.5%
same,"viability, T/C",[51],31.1%
same,"viability, T/C",[52],37.2%
same,"viability, T/C",[53],37.3%
same,"viability, T/C",[54],42.9%
same,"viability, T/C",[24],37.6%
same,"viability, T/C",[25],31.4%
same,"viability, T/C",[55],75.4%
same,"viability, T/C",[56],102%
same,"viability, T/C",[57],78.1%
same,"viability, T/C",[58],106%
same,"viability, T/C",[30],83.7%
same,"viability, T/C",[31],65.7%
